As a reminder, the melting point is the temperature, or range, at which the solid turns liquid. `CCCCCCCCC1OC(=O)c2cc(N)ccc21` (stereo not drawn) [Example 6, 6-Amino-3-octyl-phthalide] came in with a melting point of 124 to 125 °C. Next, `CCCCCCC1OC(=O)c2cc(NC(C)=O)ccc21` (stereo not drawn) [Example 8, 6-Acetamido-3-hexyl-phthalide]: 135 to 137 °C. Next, `CCCCCCCCC1OC(=O)c2cc(NC(C)=O)ccc21` (stereo not drawn) [Example 9, 6-Acetamido-3-octyl-phthalide]: 133 to 134 °C. Under `CCCCC1OC(=O)c2cc(NC(N)=S)ccc21` (stereo not drawn) [Example 21, 3-Butyl-6-thioureido-phthalide] stands 183 to 185 °C. Consider `CCC1(CC)OC(=O)c2cc([N+](=O)[O-])ccc21` [Example 24, 3,3-Diethyl-6-nitro-phthalide], for which the melting point lay in the range of 98.5 to 100 °C.

As for `CCC1(CC)OC(=O)c2cc(N)ccc21` [Example 25, 6-Amino-3,3-diethyl-phthalide], the melting point fell in the range of 153 to 154 °C.

Values taken from patent US6689808B2, “Substituted phthalides, a process for their preparations and pharmaceutical compositions containing them” (Les Laboratoires Servier, priority 2000, dated 2004).
